Experimental findings from ChEMBL document CHEMBL4765397, “Design, synthesis and bioevaluation of novel substituted triazines as potential dual PI3K/mTOR inhibitors” (Eur J Med Chem, 2020) are described below.

Data set [1] deals with Serine/threonine-protein kinase mTOR (Homo sapiens, UniProt P42345). The experiment in a line: Inhibition of mTOR (unknown origin) using ULight-4E-BP1 as substrate measured after 45 mins in presence of ATP by LANCE Ultra assay.
Data set [2] has as its target T1, Phosphatidylinositol 4,5-bisphosphate 3-kinase catalytic subunit delta isoform (Homo sapiens, UniProt O00329).
T1 sequence (O00329 whole entry): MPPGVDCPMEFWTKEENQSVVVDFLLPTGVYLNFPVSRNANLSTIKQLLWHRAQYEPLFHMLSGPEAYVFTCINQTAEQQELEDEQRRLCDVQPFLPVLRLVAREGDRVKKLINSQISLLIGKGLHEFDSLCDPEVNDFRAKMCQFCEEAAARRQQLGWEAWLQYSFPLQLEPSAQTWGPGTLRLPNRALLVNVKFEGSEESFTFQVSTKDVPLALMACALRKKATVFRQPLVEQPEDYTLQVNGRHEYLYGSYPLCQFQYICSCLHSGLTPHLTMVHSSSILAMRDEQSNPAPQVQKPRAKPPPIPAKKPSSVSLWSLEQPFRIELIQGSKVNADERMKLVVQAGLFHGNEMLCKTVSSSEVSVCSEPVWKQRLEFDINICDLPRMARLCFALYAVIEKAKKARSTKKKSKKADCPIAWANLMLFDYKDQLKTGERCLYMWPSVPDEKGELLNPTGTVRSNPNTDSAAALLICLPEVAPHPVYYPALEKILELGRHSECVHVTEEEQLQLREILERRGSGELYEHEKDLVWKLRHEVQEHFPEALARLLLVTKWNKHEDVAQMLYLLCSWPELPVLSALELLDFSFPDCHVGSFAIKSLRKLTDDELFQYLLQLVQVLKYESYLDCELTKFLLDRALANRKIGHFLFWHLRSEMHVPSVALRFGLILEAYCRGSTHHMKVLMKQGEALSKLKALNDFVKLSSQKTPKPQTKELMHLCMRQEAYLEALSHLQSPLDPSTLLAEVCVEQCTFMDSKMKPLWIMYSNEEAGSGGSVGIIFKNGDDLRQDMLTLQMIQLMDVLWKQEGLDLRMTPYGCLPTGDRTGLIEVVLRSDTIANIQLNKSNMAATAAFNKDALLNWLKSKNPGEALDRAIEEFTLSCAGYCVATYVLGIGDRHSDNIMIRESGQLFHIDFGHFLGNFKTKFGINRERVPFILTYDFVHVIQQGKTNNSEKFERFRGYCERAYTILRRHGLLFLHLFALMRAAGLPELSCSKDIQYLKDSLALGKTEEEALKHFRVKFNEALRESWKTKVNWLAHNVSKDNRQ
The data set is described as follows: Inhibition of PI3Kdelta (unknown origin) using PIP2 as substrate measured after 1 hr in presence of ATP by ADP-Glo reagent based assay. (In general: ADP-Glo first removes unused ATP, then detects ADP through luciferase.)

The subject of data set [3] is MDA-MB-231. The experiment in a line: Antiproliferative activity against human MDA-MB-231 cells assessed as reduction in cell viability after 48 hrs by MTT assay. The data set is classed as functional, cell-based. The note with it: MDA-MB-231, 48 h. On the technique in general: Tetrazolium dyes change colour on reduction, which living cells bring about.
In data set [4] the test system is HeLa. The data set is described as follows: Antiproliferative activity against human HeLa cells assessed as reduction in cell viability after 48 hrs by MTT assay. The data set is classed as functional, cell-based.
In data set [5] the test system is CNE-2. The experiment in a line: Antiproliferative activity against human CNE2 cells assessed as reduction in cell viability after 48 hrs by MTT assay. In kind it is functional, cell-based. The note with it: CNE-2, 48 h.
Data set [6] relates to HCT-116. The data set is described as follows: Antiproliferative activity against human HCT116 cells assessed as reduction in cell viability after 48 hrs by MTT assay. The data set is classed as functional, cell-based. The note with it: HCT-116, 48 h.
Data set [7] deals with HepG2. The experiment in a line: Antiproliferative activity against human HepG2 cells assessed as reduction in cell viability after 48 hrs by MTT assay. In kind it is functional, cell-based. The note with it: HepG2, 48 h.
Data set [8] relates to MCF7. The data set is described as follows: Antiproliferative activity against human MCF-7 cells assessed as reduction in cell viability after 48 hrs by MTT assay. In kind it is functional, cell-based. The conditions noted are these: MCF7, 48 h.
Data set [9] concerns HCT-116. The experiment in a line: Inhibition of PI3K/mTOR signaling in human HCT116 cells assessed as reduction in AKT phosphorylation at 10 uM measured by Western blot analysis. In kind it is cell-based. (In western blotting, separated proteins are transferred to a membrane and probed.)
Data set [10] concerns HCT-116. The experiment in a line: Inhibition of PI3K/mTOR signaling in human HCT116 cells assessed as reduction in […] phosphorylation at 10 uM measured by Western blot analysis. In kind it is cell-based.
A short description of data set [11]: Metabolic stability in artificial gastrointestinal fluids.
The nature of data set [12]: Metabolic stability in rat liver microsomes assessed as compound remaining measured after 45 mins. The data set is classed as ADME, Microsome. The note with it: 0.75 h.

Active and inactive are the calls of the source. The calls are words filed in the database; no cut-off is given here.

Take `NC(=O)C1(N)CCN(C(=O)c2ccc3nc(Nc4ccc(-c5nc(N6CCOCC6)nc(N6CCOCC6)n5)cc4)[nH]c3c2)CC1`: the IC50 in data set [1] came out at 5.7 µM.
Regarding `NC(=O)[C@H]1CCCN1C(=O)c1ccc2nc(Nc3ccc(-c4nc(N5CCOCC5)nc(N5CCOCC5)n4)cc3)[nH]c2c1`, the IC50 in data set [1] amounted to 5.6 µM; in data set [2] it was 5.1 nM; in data set [3] it was 5.5 µM; in data set [4] it was 7700 nM; in data set [5], 7.3 µM; in [6], 900 nM. Moreover, the IC50 in [7] turned out to be 23 µM; in data set [8] it was 300 nM. Besides, the inhibition entry in [9] and in data set [10] was “Active” each time. The Stability result in data set [11] was “Stable”. The Stabilty entry in [12] is on record as “Stable”.
Regarding `NC(=O)[C@@H]1CCCN1C(=O)c1ccc2nc(Nc3ccc(-c4nc(N5CCOCC5)nc(N5CCOCC5)n4)cc3)[nH]c2c1`, the IC50 in data set [1] was 11.8 µM. The Stability entry in data set [11] is given as “Stable”. Also, the Stabilty result in data set [12] is on record as “Stable”.
For `NC(=O)C1CCN(C(=O)c2ccc3nc(Nc4ccc(-c5nc(N6CCOCC6)nc(N6CCOCC6)n5)cc4)[nH]c3c2)CC1`, the IC50 in data set [1] stood at 15.4 µM; in data set [2] it was 2.3 nM.
Regarding `NC(=O)C1CCCCN1C(=O)c1ccc2nc(Nc3ccc(-c4nc(N5CCOCC5)nc(N5CCOCC5)n4)cc3)[nH]c2c1` (centres undefined), in [1], the IC50 was found to be 8.5 µM.
Regarding `NC(=O)C1CCCN(C(=O)c2ccc3nc(Nc4ccc(-c5nc(N6CCOCC6)nc(N6CCOCC6)n5)cc4)[nH]c3c2)C1` (centres undefined), the IC50 in data set [1] turned out to be 10.2 µM.
For `CS(=O)(=O)N1CCN(C(=O)c2ccc3nc(Nc4ccc(-c5nc(N6CCOCC6)nc(N6CCOCC6)n5)cc4)[nH]c3c2)CC1`, the IC50 in data set [1] came to 11.9 µM.
For the molecule `C[C@H](NC(=O)c1ccc2nc(Nc3ccc(-c4nc(N5CCOCC5)nc(N5CCOCC5)n4)cc3)[nH]c2c1)C(N)=O`, the IC50 in [1] was found to be 5.8 µM; in data set [2] it was 5 nM; in data set [3] it was 1.9 µM; in data set [4] it was 1300 nM; in [5], 12.3 µM; in [6] it was 700 nM. In addition, the IC50 in data set [7] stood at 7.9 µM; in data set [8] it was 400 nM.
Consider `CN1CCN(C(=O)c2ccc3nc(Nc4ccc(-c5nc(N6CCOCC6)nc(N6CCOCC6)n5)cc4)[nH]c3c2)CC1`, for which the figures for the IC50 in [1] and in data set [2] were 13.1 µM and 13 nM, respectively.
Consider `O=C(c1ccc2nc(Nc3ccc(-c4nc(N5CCOCC5)nc(N5CCOCC5)n4)cc3)[nH]c2c1)N1CCOCC1`, for which the IC50 was determined as 12.9 µM in data set [1]; 44 nM in data set [2]; 4.8 µM in data set [3]; 2400 nM in data set [4]; 6.9 µM in data set [5]; 300 nM in [6]. In addition, the values for the IC50 in [7] and in [8] were 1.3 µM and 1200 nM, respectively. Moreover, the inhibition entry in [9] and in [10] was “Active” each time. The Stability result in data set [11] is listed as “Stable”. In addition, the Stabilty entry in data set [12] is reported as “Unstable”.
As to `CN(C)C1CCN(C(=O)c2ccc3nc(Nc4ccc(-c5nc(N6CCOCC6)nc(N6CCOCC6)n5)cc4)[nH]c3c2)CC1`, in data set [1], the IC50 came out at 14.6 µM.

Usually IC50 stands for the concentration that inhibits the measured activity by half.
